Experimental data reported in PubChem BioAssay AID2060507 (Molecular Pharmacology Branch, DTP, NCI, 2025).
pIC50: −log10 of the molar value. Values belong to the compound of their own block, whether it stands above or below them.

Tested on: 519858-162-T-J1-PDC complex spheroid viability
Experiment: Anticancer human tumor 519858-162-T-J1-PDC patient-derived colon adenocarcinoma cell line growth inhibition [GQUAD]
Conditions: for pIC50: curve of first compound; for viability, T/C: stronger effect = lower value
How it was run: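 Viability of tumor cells grown as complex spheroids with endothelial and stromal cells, exposed to drug combinations. Top concentration at or near clinical Cmax (else 10 microM), diluted in half-log increments.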

[1] = second compound 0.0316 µM, first compound 0.0316 µM
[2] = second compound 0.0316 µM, first compound 0.1 µM
[3] = second compound 0.0316 µM, first compound 0.316 µM
[4] = second compound 0.0316 µM, first compound 1 µM
[5] = second compound 0.0316 µM, first compound 3.16 µM
[6] = second compound 0.0316 µM, first compound 10 µM
[7] = second compound 0.1 µM, first compound 0.0316 µM
[8] = second compound 0.1 µM, first compound 0.1 µM
[9] = second compound 0.1 µM, first compound 0.316 µM
[10] = second compound 0.1 µM, first compound 1 µM
[11] = second compound 0.1 µM, first compound 3.16 µM
[12] = second compound 0.1 µM, first compound 10 µM
[13] = second compound 0.316 µM, first compound 0.0316 µM
[14] = second compound 0.316 µM, first compound 0.1 µM
[15] = second compound 0.316 µM, first compound 0.316 µM
[16] = second compound 0.316 µM, first compound 1 µM
[17] = second compound 0.316 µM, first compound 3.16 µM
[18] = second compound 0.316 µM, first compound 10 µM
[19] = second compound 1 µM, first compound 0.0316 µM
[20] = second compound 1 µM, first compound 0.1 µM
[21] = second compound 1 µM, first compound 0.316 µM
[22] = second compound 1 µM, first compound 1 µM
[23] = second compound 1 µM, first compound 3.16 µM
[24] = second compound 1 µM, first compound 10 µM
[25] = second compound 3.16 µM, first compound 0.0316 µM
[26] = second compound 3.16 µM, first compound 0.1 µM
[27] = second compound 3.16 µM, first compound 0.316 µM
[28] = second compound 3.16 µM, first compound 1 µM
[29] = second compound 3.16 µM, first compound 3.16 µM
[30] = second compound 3.16 µM, first compound 10 µM
[31] = second compound 10 µM, first compound 0.0316 µM
[32] = second compound 10 µM, first compound 0.1 µM
[33] = second compound 10 µM, first compound 0.316 µM
[34] = second compound 10 µM, first compound 1 µM
[35] = second compound 10 µM, first compound 3.16 µM
[36] = second compound 10 µM, first compound 10 µM
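Wherever viability, T/C is given: 100% = DMSO vehicle control viability.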

SMILES: CCCS(=O)(=O)Nc1ccc(F)c(C(=O)c2c[nH]c3ncc(-c4ccc(Cl)cc4)cc23)c1F + Cc1[nH]c2ccc(F)cc2c1-c1nc2c3cccnc3c3ncccc3c2[nH]1
pIC50 (second compound 0.0316 µM): < 5.00
pIC50 (second compound 0.1 µM): < 5.00
pIC50 (second compound 0.316 µM): < 5.00
pIC50 (second compound 1 µM): < 5.00
pIC50 (second compound 3.16 µM): 5.15
pIC50 (second compound 10 µM): < 5.00
viability, T/C [1]: 90.7%
viability, T/C [2]: 92%
viability, T/C [3]: 83.7%
viability, T/C [4]: 129%
viability, T/C [5]: 135%
viability, T/C [6]: 101%
viability, T/C [7]: 103%
viability, T/C [8]: 119%
viability, T/C [9]: 97.9%
viability, T/C [10]: 113%
viability, T/C [11]: 87.6%
viability, T/C [12]: 107%
viability, T/C [13]: 101%
viability, T/C [14]: 116%
viability, T/C [15]: 108%
viability, T/C [16]: 75.4%
viability, T/C [17]: 112%
viability, T/C [18]: 119%
viability, T/C [19]: 62.5%
viability, T/C [20]: 74.1%
viability, T/C [21]: 99.3%
viability, T/C [22]: 99.2%
viability, T/C [23]: 115%
viability, T/C [24]: 101%
viability, T/C [25]: 86.3%
viability, T/C [26]: 51.3%
viability, T/C [27]: 81.9%
viability, T/C [28]: 72%
viability, T/C [29]: 86%
viability, T/C [30]: 38.7%
viability, T/C [31]: 79.8%
viability, T/C [32]: 53.7%
viability, T/C [33]: 60.8%
viability, T/C [34]: 89.2%
viability, T/C [35]: 105%
viability, T/C [36]: 109%

SMILES: COc1cccc2c1C(=O)c1c(O)c3c(c(O)c1C2=O)CC(O)(C(=O)CO)CC3OC1CC(N)C(O)C(C)O1 (stereo not drawn) + Cc1[nH]c2ccc(F)cc2c1-c1nc2c3cccnc3c3ncccc3c2[nH]1
pIC50 (second compound 0.0316 µM): < 5.00
pIC50 (second compound 0.1 µM): < 5.00
pIC50 (second compound 0.316 µM): < 5.00
pIC50 (second compound 1 µM): < 5.00
pIC50 (second compound 3.16 µM): < 5.00
pIC50 (second compound 10 µM): < 5.00
viability, T/C [1]: 117%
viability, T/C [2]: 126%
viability, T/C [3]: 95.3%
viability, T/C [4]: 81.9%
viability, T/C [5]: 82.1%
viability, T/C [6]: 75.3%
viability, T/C [7]: 104%
viability, T/C [8]: 122%
viability, T/C [9]: 98.5%
viability, T/C [10]: 80.1%
viability, T/C [11]: 61.3%
viability, T/C [12]: 62.1%
viability, T/C [13]: 82.3%
viability, T/C [14]: 95.4%
viability, T/C [15]: 121%
viability, T/C [16]: 78.6%
viability, T/C [17]: 72.9%
viability, T/C [18]: 50.6%
viability, T/C [19]: 109%
viability, T/C [20]: 98.6%
viability, T/C [21]: 109%
viability, T/C [22]: 70.2%
viability, T/C [23]: 69.9%
viability, T/C [24]: 51.9%
viability, T/C [25]: 96.3%
viability, T/C [26]: 72.7%
viability, T/C [27]: 78.3%
viability, T/C [28]: 68.2%
viability, T/C [29]: 62.4%
viability, T/C [30]: 72.9%
viability, T/C [31]: 47%
viability, T/C [32]: 79.9%
viability, T/C [33]: 60.7%
viability, T/C [34]: 51.4%
viability, T/C [35]: 44%
viability, T/C [36]: 78.1%

SMILES: Cc1cccc(N(C)C(=O)C2C(O)CCN2c2nc(C)cc(C(F)(F)F)c2C#N)c1 (stereo not drawn) + CN(C)c1ccc(Nc2c3ccc(NC(=O)CCN4CCCC4)cc3nc3cc(NC(=O)CCN4CCCC4)ccc23)cc1
pIC50 (second compound 0.0316 µM): < 5.00
pIC50 (second compound 0.1 µM): < 5.00
pIC50 (second compound 0.316 µM): < 5.00
pIC50 (second compound 1 µM): < 5.00
pIC50 (second compound 3.16 µM): < 5.00
pIC50 (second compound 10 µM): < 5.00
viability, T/C [1]: 86.1%
viability, T/C [2]: 126%
viability, T/C [3]: 96.4%
viability, T/C [4]: 95.2%
viability, T/C [5]: 91.1%
viability, T/C [6]: 92.9%
viability, T/C [7]: 105%
viability, T/C [8]: 78.6%
viability, T/C [9]: 109%
viability, T/C [10]: 77.2%
viability, T/C [11]: 68.1%
viability, T/C [12]: 83.8%
viability, T/C [13]: 111%
viability, T/C [14]: 87.7%
viability, T/C [15]: 120%
viability, T/C [16]: 61.4%
viability, T/C [17]: 75%
viability, T/C [18]: 85.5%
viability, T/C [19]: 102%
viability, T/C [20]: 84.6%
viability, T/C [21]: 109%
viability, T/C [22]: 73.1%
viability, T/C [23]: 88.8%
viability, T/C [24]: 73.3%
viability, T/C [25]: 63.9%
viability, T/C [26]: 76.2%
viability, T/C [27]: 103%
viability, T/C [28]: 91.8%
viability, T/C [29]: 78.5%
viability, T/C [30]: 62.3%
viability, T/C [31]: 71.2%
viability, T/C [32]: 78.8%
viability, T/C [33]: 57.9%
viability, T/C [34]: 90.7%
viability, T/C [35]: 65.2%
viability, T/C [36]: 88.3%

pIC50 (second compound 0.0316 µM): < 5.00
pIC50 (second compound 0.1 µM): < 5.00
pIC50 (second compound 0.316 µM): 5.02
pIC50 (second compound 1 µM): 5.44
pIC50 (second compound 3.16 µM): 5.90
pIC50 (second compound 10 µM): > 7.50
SMILES: C#Cc1c(F)ccc2cc(O)cc(-c3ncc4c(N5CC6CCC(C5)N6)nc(OCC56CCCN5CC(F)C6)nc4c3F)c12 (stereo not drawn) + Cc1cnc(CNC(=O)c2c(=O)c3ccc(N4CCCN(C)CC4)nc3n3c2sc2ccccc23)cn1
viability, T/C [1]: 71.2%
viability, T/C [2]: 81.3%
viability, T/C [3]: 83.4%
viability, T/C [4]: 104%
viability, T/C [5]: 78.2%
viability, T/C [6]: 73.9%
viability, T/C [7]: 78.8%
viability, T/C [8]: 89%
viability, T/C [9]: 61.9%
viability, T/C [10]: 84.2%
viability, T/C [11]: 70.7%
viability, T/C [12]: 92%
viability, T/C [13]: 65%
viability, T/C [14]: 88%
viability, T/C [15]: 73.3%
viability, T/C [16]: 66.6%
viability, T/C [17]: 83.1%
viability, T/C [18]: 49.2%
viability, T/C [19]: 70.1%
viability, T/C [20]: 56.7%
viability, T/C [21]: 63.5%
viability, T/C [22]: 55.9%
viability, T/C [23]: 48.8%
viability, T/C [24]: 46.4%
viability, T/C [25]: 46.6%
viability, T/C [26]: 63.5%
viability, T/C [27]: 53.4%
viability, T/C [28]: 53.1%
viability, T/C [29]: 34.5%
viability, T/C [30]: 42%
viability, T/C [31]: 32.5%
viability, T/C [32]: 55.2%
viability, T/C [33]: 48.4%
viability, T/C [34]: 53.4%
viability, T/C [35]: 52.4%
viability, T/C [36]: 41.7%
